Source: patent publication US6673843B2 (Emory University, priority 1999, dated 2004)
“Also recorded” adds a separate entry of the source.

Key:
[1] = tested on: quinone reductase [NAD(P)H:(quinone-acceptor) oxidoreductase, EC1.6.99.2] in murine Hepac1c7 cells; experiment: Phase II enzyme induction (quinone reductase); format: cell-based; conditions: for PHASE II INDUCTION CD (concentration to double the measured specific activity): quinone reductase, murine Hepac1c7 cells
Text: Several plant-derived compounds with anticancer and chemopreventive activities also show the ability to induce phase II detoxifying enzymes, including quinone reductase.

[2] = tested on: bFGF-induced corneal neovascularization; experiment: Corneal neovascularization, bFGF pellet in mouse cornea; format: in vivo, C57BL6 male mice; conditions: for ANTI-ANGIOGENIC EFFECT Vessel Length / ANTI-ANGIOGENIC EFFECT Sector Size: pellet with 80 ng bFGF and 44 μg compound, mouse cornea; for ANTI-ANGIOGENIC EFFECT Sector Size: footnote: units of 1/12 of a circle (clock hours)
Protocol: C57BL6 male mice (5-6 weeks old) were anesthetized with methoxyflurane prior to implantation of pellets and with 0.5% proparacaine. A central, intrastromal linear keratotomy was performed with a surgical blade, and a lamellar micropocket was prepared according to the method of Kenyon, et al. (1996). The pellet was advanced to the end of the pocket. Erythromycin ointment was placed on the operated eye to prevent infection. Eyes were examined by slit lamp on days 3-6 after implantation under general anesthesia. Corneal angiogenesis was assayed through two measurements.
Vessel length is the length of the vessel from the corneal limbus as it grows toward the pellet containing bFGF.
Sector size is a measurement of neovascularized area of the cornea. The cornea is viewed as a circle that can be divided into twelve sectors of 30 degrees span each, analogous to the division of a clock face into twelve hours. Thus, neovascularization of a sector corresponding to one fourth of the cornea would be recorded as a sector size measurement of three. This system of measurement, recording sector sizes as “clock hours”, was established by Kenyon et al., Invest. Ophthalmol. 37:1625-1632 (1996).
Pellets were prepared according to a modification of the method of Kenyon, et al. Invest. Opthalmol. Vis. Sci. 37:1625-1632 (1996). […] Once the mixture was dry, the mesh was manually dissociated to yield 225 pellets. […] The approximate pore size was 0.4×0.4 mm. Both sides of the mesh were covered with a thin layer of hydron.
Neovascularization was assessed by slit lamp at 5 days after implantation, and the corneas were photographed.

[3] = tested on: MSI (ATCC CCRL 2279) endothelial cells; experiment: Endothelial proliferation assay, SV40 large T antigen immortalized endothelial cells; format: cell-based, murine; conditions: 72-hour exposure
Protocol: Similarly, MSI (ATCC CCRL 2279) endothelial cells, which are a SV40 large T antigen immortalized murine endothelial cell line, were also plated at a concentration of 10,000 cells/well in nongelatinized 24-well dishes.

induced tumors = conditions: oral administration, skin and colon chemical carcinogens; cited from earlier work
[4] = tested on: omithine decarboxylase induction and promotion of mouse skin; conditions: oral administration; Huang et al. 1995; cited from earlier work
VEGF mRNA = experiment: Production of VEGF mRNA in HaCaT keratinocytes (RNAse protection); format: cell-based, human; conditions: TPA 5 ng/ml, three hours, HaCaT cells
Protocol: HaCaT keratinocytes were grown in (DMEM) (JRH) supplemented with 5% FCS (Hyclone, Logan, UT) in 25 cm^2 flasks. […] TPA was added to a final concentration of 5 ng/ml and cells were incubated for three hours at 37° C. and harvested, and their RNA was extracted with guanidinium thiocyanate/phenol.
A plasmid containing the coding region of human vascular endothelial growth factor (VEGF) 121 was obtained from H. Welch (University of Freiburg, Germany), and used to generate P^32-labeled antisense riboprobe as per manufacturers protocols (Ambion, Austin, Tex.). RNAse protection assays were performed according to the method of Hod, Biotechniques 13:852-853 (1992). Protected fragments were separated on gels of 5% acrylamide, 8 M urea, 1× Tris-borate buffer, and quantified with a phosphorimager (Molecular Dynamics, Sunnyvale, Calif.). An 18S riboprobe was included in each sample to normalize for variations in loading and recovery of RNA.
HaCaT cells are derived from spontaneously transformed human keratinocytes.

[5] = tested on: human umbilical vein endothelial cells (HUVEC); conditions: independent of bFGF stimulation; Singh et al. 1996; cited from earlier work
[6] = tested on: Bovine capillary endothelial cells; experiment: Endothelial proliferation assay, primary endothelial cells; format: cell-based; conditions: 72 hours
Protocol: Bovine capillary endothelial cells were isolated according to the method of Folkman, et al., Proc. Nat. Acad. Sci. U.S.A. 76:5217-5221 (1979), and were plated at a concentration of 10,000 cells/well in gelatinized 24-well dishes. The primary endothelial cells were cultured in Dulbecco's modified Eagle's medium (DMEM) supplemented with 10% bovine serum and grown at 37° C. in 10% CO2. Twenty-four hours after plating, cells were treated with curcumin in the presence or absence of bFGF. After 72 hours of treatment, cells were counted using a Coulter counter. Cell counts for each condition were repeated in triplicate and in the presence or absence of 1 ng/ml bFGF. Endothelial cells were stimulated to proliferate in the presence of 1 ng/ml bFGF.

[7] = pellet with 80 ng bFGF plus compound

Row | SMILES | PHASE II INDUCTION CD (concentration to double the measured specific activity) [1] [µM] | ANTI-ANGIOGENIC EFFECT Vessel Length [2] [mm.] | ANTI-ANGIOGENIC EFFECT Sector Size [2] [clock hours] | other results
1 | O=C(/C=C/c1ccc(O)cc1)CC(=O)/C=C/c1ccc(O)cc1 [Bisdemethoxycurcumin, bisdemethoxycurcumin] | 11.0 | 0.88 | 1.7 | 
2 | COc1cc(/C=C/C(=O)CC(=O)/C=C/c2ccc(O)c(OC)c2)ccc1O [Curcumin] | 7.3 | 0.59 | 1.17 | growth of endothelial cells immortalized by SV40 large T antigen [3]: able to inhibit the growth; incidence and size of induced tumors compared with control mice (induced tumors): decreased incidence and size; inhibition of phorbol ester-stimulated ornithine decarboxylase induction and promotion of DMBA-initiated mouse skin [4]: able to inhibit; inhibition of TPA-caused increase in VEGF mRNA (VEGF mRNA; 10 μM curcumin): not inhibited; also recorded: lack of inhibition; sector size (in words) [2, 7]: significantly reduced; vessel length (in words) [2, 7]: significantly reduced; in vitro proliferation of HUVEC [5]: inhibits; cell number (proliferation) after treatment ([6]; 10 μM, presence or absence of 1 ng/ml bFGF): steep decrease in cell number; cytotoxicity to endothelial cells ([6]; 0.5 to 10 μM): No evidence of cytotoxicity
3 | COc1cc(/C=C/C(O)=C/C(=O)/C=C/c2ccc(O)cc2)ccc1O [Demethoxycurcumin, demethoxycurcumin] | 9.0 | 0.26 | 0.71 | 
4 | CCCCCCCCCCCCCC(=O)O[C@@H]1[C@@H](C)[C@@]2(O)[C@@H](C=C(CO)C[C@]3(O)C(=O)C(C)=C[C@@H]23)[C@@H]2C(C)(C)[C@]12OC(C)=O [TPA, 12-O-tetradecanoylphorbol-13-acetate, reference compound] |  |  |  | increase in VEGF mRNA (VEGF mRNA): 2.5 fold
5 | O=C1C(c2ccccc2)=C(c2ccccc2)C(c2ccccc2)=C1c1ccccc1 [TPCPD, tetraphenylcyclopentadienone, reference compound] | 4.8 | 1.16 | 3.72 | bFGF-induced corneal neovascularization (in words) [2, 7]: no anti-angiogenic activity; also recorded: no difference in neovascularization; bFGF-induced corneal neovascularization (in words) ([2]; pellet with 80 ng bFGF plus compound, listed as tetraphenylcyclopentadienone (TPCPD)): no effect
6 | COc1cc(CCC(=O)CC(=O)CCc2ccc(O)c(OC)c2)ccc1O [Tetrahydrocurcumin, tetrahydrocurcumin] | >25 | 0.74 | 2.43 | induction of quinone reductase activity ([1]; highest concentration tested, 25 μM): 1.6 fold
